Tests used:
[1] = Plasma pharmacokinetics after intravenous injection; format: in vivo, mouse; design: distribution volume: unit not given here; conditions: female Swiss nude mice, 2 nmol/animal
Experimental: In female Swiss nude mice (N=18), the compound of Example 3 solubilized to 10 nmol/ml in 0.9% NaCl solution is injected intravenously (200 μl) into the caudal vein. Blood is collected at various times (5 and 30 minutes then 2, 4, 8 and 24 hours; 3 mice/sample time) and, after centrifugation, the supernatant plasma is transferred to heparinized tubes. The sample is then diluted in 50 μl of a 20 mM ammonium formate/acetonitrile/formic acid 50/50/0.1 buffer mixture to be analyzed by UPLC-MS/MS, ESI+.

[2] = test system: A549 human lung adenocarcinoma model; test: Targeting of heterotopically-transplanted tumors, fluorescence imaging; format: in vivo, mouse; conditions: A549 xenograft in Swiss nude mice, 2 nmol i.v., t24h
Experimental: (§1) In the right rear paw of Swiss nude mice (N=12), 1 to 2×10^6 tumor cells are inoculated subcutaneously, forming a group of 3 mice for each tumor cell line (A549 human lung adenocarcinoma model; H460 human lung carcinoma model; HCT116 human colorectal carcinoma model; U87MG human glioblastoma model).
(§2) When the tumors reach a volume of between 0.5 and 1 cm, the compound of Example 3 (200 μl) solubilized at 10 nmol/ml in phosphate buffer solution (PBS) is injected intravenously.
(§3) Under gas anesthesia, 5 acquisitions are carried out at various times of the experiment (2, 4, 6, 8 and 24 hours) using a Caliper IVIS Lumina II apparatus (ex=680 nm; em=720 nm). In parallel, blood samples are taken.
(§4) After the animals are euthanized by cervical dislocation, the organs (kidney, liver, spleen, lung, tumor, blood, muscle, heart, intestine) are taken and ex vivo acquisition is carried out (Lumina II: ex=680 nm; em=720 nm).

[3] = test system: H460 human lung carcinoma model; test: as above; format: in vivo, mouse; conditions: H460 xenograft in Swiss nude mice, 2 nmol i.v., t24h
Experimental: as §1, §2, §3, §4

[4] = test system: HCT116 human colorectal carcinoma model; test: as above; format: in vivo, mouse; conditions: HCT116 xenograft in Swiss nude mice, 2 nmol i.v., t24h
Experimental: as §1, §2, §3, §4

[5] = test system: U87MG human glioblastoma model; test: as above; format: in vivo, mouse; conditions: U87MG xenograft in Swiss nude mice, 2 nmol i.v., t24h
Experimental: as §1, §2, §3, §4

[6] = test system: A549, H460, HCT116, U87MG tumors; test: Tumor fixation kinetics and ex vivo biodistribution, results stated across the tumor models; format: in vivo, mouse
Experimental: as §1, §2, §3, §4

[7] = test system: K-rasLA1 murine model spontaneously developing bronchioloalveolar carcinoma; test: Targeting of spontaneous tumors, ex vivo lung fluorescence; format: in vivo, mouse; conditions: K-rasLA1 mice, 200 μl at 10 nmol/ml i.v.
Experimental: On the K-rasLA1 murine model spontaneously developing bronchioloalveolar carcinoma, tumor development is controlled by X-ray scanner synchronized on respiration before injection of the product to be tested. The compound of Example 3 (200 μl) solubilized at 10 nmol/ml in phosphate buffer solution (PBS) is then injected intravenously.
After the animals are euthanized, the lungs are taken to be fixed by tracheal injection of neutral formalin. Acquisition of fluorescence ex vivo is carried out using a Caliper IVIS Lumina II apparatus (ex=680 nm; em=720 nm). A photograph of the excised lung is also taken.

[8] = test system: U87MG (human glioblastoma) tumor cells; test: Interaction with tumor development, bioluminescence; format: in vivo
Experimental: In the right rear paw of Swiss nude mice (N=12), 3×10^6 U87MG (human glioblastoma) tumor cells are inoculated subcutaneously. When the tumor reaches a volume of 0.5 cm, luciferin (2 mg/mouse) is injected intraperitoneally in order to carry out bioluminescence acquisition and quantification at D0.
The animals are divided into 3 groups of 4 to form a control group with no injection; a group receiving a single intravenous injection of the compound of Example 3 (2 nmol in 200 μl); and a group receiving a weekly intravenous injection for 4 weeks of the compound of Example 3 (2 nmol in 200 μl). Lastly, bioluminescence acquisition and quantification are carried out 3 times per week after the intraperitoneal injection of luciferin.

CC[N+]1=C(/C=C/C=C/C=C2/N(CCCCCC(=O)NCc3ccc4c(c3)Cc3cc(OCCCNc5cc(C)ccn5)ccc3CC4CC(=O)O)c3ccc4c(S(=O)(=O)O)cc(S(=O)(=O)O)cc4c3C2(C)C)C(C)(C)c2c1ccc1c(S(=O)(=O)O)cc(S(=O)(=O)O)cc21 (centres unmarked) [Example 3, Cy™ 5.5 Conjugate of the Compound of Preparation 1]
distribution volume [1]: 1 | half-life ([1]; mouse, plasma): 15 h | clearance ([1]; mouse, plasma, read-out: plasma clearance rate): 0.8 mL/min/kg | tumor/healthy tissue ratio [2]: 2.3 | tumor/healthy tissue ratio [3]: 1.66 | tumor/healthy tissue ratio [4]: 2 | tumor/healthy tissue ratio [5]: 3.5 | biodistribution in the principal organs ([6]; ex vivo, 24 hours after injection): high specificity of the probe for the tumor | signal of tumor volume relative to muscle tissue ([6]; ex vivo, 24 hours after injection, on average): 12 times | tumor/kidney ratio ([6]; ex vivo, t24h): 2 | visibility of targeted tumors by fluorescence imaging ([6]; whatever cancer line, 2 nmol i.v., 24 hours post-injection): clearly visible | targeting of neoplastic lesions formed in situ [7]: strong potential of targeting | tumor growth by bioluminescence ([8]; U87MG in Swiss nude mice, control, single i.v. injection, or weekly i.v. injection for 4 weeks, 2 nmol): identical for the three groups | anti- or pro-angiogenic effect ([8]; single or multiple injections, 2 nmol/mouse): No anti- or pro-angiogenic effect is observed
